In patent US20230075856A1, “CYCLIC SULFAMIDE COMPOUNDS FOR TREATMENT OF HBV” (Assembly Biosciences, Inc., priority 2018, published 2023):
pEC50: −log10 of the molar value.

The compounds below were run on HBV viral load production from HepAD38 cells (assay: Viral production from HepAD38 cells: viral load in supernatant by qPCR of the HBV core sequence). Conditions: Hepatitis B virus, HePAD38, 120 h, 5 days incubation, qPCR of supernatant HBV DNA vs DMSO control, read-out: viral load lowering EC50 (Activity).
Assay type: cell-based
Outline: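 HepAD38 cells seeded at 50,000/well in tetracycline-free medium with 2% FBS, treated with compounds (final top concentration 10 μM) for 5 days at 37 °C. Supernatant HBV DNA quantified by TaqMan qPCR of core sequence against HBV DNA standards, relative to DMSO controls; EC50 by four-parameter logistic fit.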

`CC(C)OC(=O)N1CCC(NC(=O)C2CC(C(=O)Nc3ccc(F)c(Cl)c3)N(C)S(=O)(=O)N2)CC1` (single isomer, unassigned) [Compound 766-ISOMER-A, isopropyl 4-[[5-[(3-chloro-4-fluoro-phenyl)carbamoyl]-6-methyl-1,1-dioxo-1,2,6-thiadiazinane-3-carbonyl]amino]piperidine-1-carboxylate] and `CN1C(C(=O)Nc2ccc(F)c(Cl)c2)CC(C(=O)NC2CCN(C(=O)OC(C)(C)C)CC2)NS1(=O)=O` (stereo not shown) [Compound 767] cannot be ordered by pEC50: > 7.30 for the first, > 7.30 for the second.

`CC(NC(=O)C1CC(C(=O)Nc2ccc(F)c(Cl)c2)N(C)S(=O)(=O)N1)c1ccc(F)cc1` (stereo not shown) [Compound 493] and `Cc1cc(CNC(=O)C2CC(C(=O)Nc3ccc(F)c(Cl)c3)N(C)S(=O)(=O)N2)n(C)n1` (stereo not shown) [Compound 482] cannot be ordered by pEC50: > 7.30 for the first, > 7.30 for the second.

`CN1C(C(=O)Nc2ccc(F)c(Cl)c2)CC(C(=O)NCc2cnc(-c3ccc(C#N)cc3F)s2)NS1(=O)=O` (single isomer, unassigned) [Compound 920-ISOMER-A, N3-(3-chloro-4-fluoro-phenyl)-N5-[[2-(4-cyano-2-fluoro-phenyl)thiazol-5-yl]methyl]-2-methyl-1,1-dioxo-1,2,6-thiadiazinane-3,5-dicarboxamide] and `CN1C(C(=O)Nc2ccc(F)c(Cl)c2)CC(C(=O)NCc2ccn(-c3ccccc3)n2)NS1(=O)=O` (single isomer, unassigned) [Compound 991-ISOMER-A, N3-(3-chloro-4-fluoro-phenyl)-2-methyl-1,1-dioxo-N5-[(1-phenylpyrazol-3-yl)methyl]-1,2,6-thiadiazinane-3,5-dicarboxamide] fall in the same range of pEC50: 5.00 to 7.00 for the first, 5.00 to 7.00 for the second.

In the case of `COC(=O)N1CCC(NC(=O)C2CC(C(=O)Nc3ccc(F)c(Cl)c3)N(CC(F)(F)F)S(=O)(=O)N2)CC1` (stereo not shown) [Compound 893], the pEC50 was > 7.30.
